The values that follow come from patent publication US9914722B2, “Compounds for treating spinal muscular atrophy” (PTC Therapeutics Inc., priority 2012, dated 2018).

Molecules are shown by their SMILES.

The test system of this assay is Smn protein. Nature of the assay: Smn protein assay (Smn HTRF) in cultured cells. Format: cell-based, human. Particulars: for maximal fold induction / EC (1.5-fold): Homo sapiens, Fibroblast, GM03813 SMA Type 1 patient fibroblasts, 48 hours, HTRF; for maximal fold induction: 7-point concentration data, relative to vehicle, read-out: maximum fold (Fold) increase of Smn protein; for EC (1.5-fold): concentration producing 1.5 times Smn protein vs DMSO vehicle, read-out: EC1.5x for Smn protein expression; for Smn protein expression: SMA Type 1 patient fibroblast cells, 48 hour, SMN HTRF assay, FIG. 6. A digest of the protocol:
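SMA patient fibroblasts (5,000/well) were exposed to a 7-point, 3.16-fold compound dilution series for 48 hours at 37° C, in triplicate. Lysates were read by HTRF with anti-SMN d2/kryptate at 665/620 nm. Blank-corrected signal was expressed as fold over DMSO vehicle, giving the EC1.5x and the maximum fold increase.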
On the technique in general: Time-resolved FRET reads energy transfer from a long-lived donor to a nearby acceptor.

With `COc1ccc(-c2cc(=O)c3cc(N4CCN[C@@H](C)C4)ccc3o2)cc1F` [Cpd 38, 2-(3-fluoro-4-methoxyphenyl)-6-[(3S)-3-methylpiperazin-1-yl]-4H-chromen-4-one], the maximal fold induction fell in the range of 1.5 to 1.65, the EC (1.5-fold) was 0.3 to 1 µM and the Smn protein expression result is recorded as “dose dependent increase in Smn protein expression”.
In the same order, the values of `C[C@@H]1CN(c2ccc3oc(-c4cn5ccccc5n4)cc(=O)c3c2)C[C@H](C)N1` [Cpd 17, 6-[(3R,5S)-3,5-dimethylpiperazin-1-yl]-2-(imidazo[1,2-a]pyridin-2-yl)-4H-chromen-4-one] are over 1.65, 1 to 3 µM and “dose dependent increase in Smn protein expression”.
